In PubChem BioAssay (NCI) one finds TGI and GI50 data, which are given here for twelve molecules.

Test systems include A549 NSCLC; DU-145 prostate; EKVX NSCLC; HCT-116 colon; HL-60(TB) leukemia; MDA-MB-231 breast; SK-OV-3 ovarian; SNB-19 CNS; SR leukemia; UO-31 renal.
What all share (test): NCI tumour cell line growth inhibition, 48 h

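Step 1: Grow cells in 96-well plates. Step 2: Expose to compound for 48 hours at 5 concentrations. Step 3: Interpolate endpoints linearly; if unreached, use highest concentration. GI50: concentration for 50% inhibition of growth. TGI: concentration producing complete growth inhibition.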

As for `Cc1ccnc2[nH]c(-c3ccc(Cl)cc3)cc(=O)c12`, the TGI is more than 100 µM in the test on A549 NSCLC; more than 100 µM in the test on DU-145 prostate; more than 100 µM in the test with EKVX NSCLC; more than 100 µM in the test with HCT-116 colon; 4.74 µM in the test with HL-60(TB) leukemia; more than 100 µM with MDA-MB-231 breast. Also, the TGI was more than 62.1 µM with SK-OV-3 ovarian, more than 100 µM in the test on SNB-19 CNS, 5.97 µM in the test on SR leukemia and more than 100 µM with UO-31 renal.
Take `COc1cc2c(cc1OC)C/C(=N\O)c1cc(OC)c(OC)cc1/C=C\2`: the TGI in the test on A549 NSCLC was more than 100 µM; in the test with DU-145 prostate, more than 64 µM; with EKVX NSCLC, more than 100 µM; with HCT-116 colon, more than 39.2 µM; with HL-60(TB) leukemia, 19.5 µM; with MDA-MB-231 breast it was more than 29.3 µM. Besides, the TGI was more than 85.3 µM with SK-OV-3 ovarian, more than 65.5 µM with SNB-19 CNS, more than 50.8 µM in the test with SR leukemia and more than 69.7 µM in the test with UO-31 renal.
Turning to `Cc1[nH]c(-c2ccccc2)c(O)c1C(=O)OC1CC(C)CCC1C(C)C` (configuration not stated), the TGI in the test with A549 NSCLC stood at 26.2 µM; in the test with DU-145 prostate, 29.7 µM; in the test with EKVX NSCLC, 23.9 µM; in the test with HCT-116 colon, 28.1 µM; in the test with HL-60(TB) leukemia it was 42.6 µM; in the test with MDA-MB-231 breast, 29 µM. In addition, the TGI was 29.1 µM in the test with SK-OV-3 ovarian, 31.1 µM with SNB-19 CNS, 34.7 µM with SR leukemia and 26 µM in the test on UO-31 renal.
As for `C=C1C(O)C2OC(=O)C(=C)C2C(OC(=O)/C(C)=C/C)CC2(C)OC2C2OC12` (configuration not stated), the TGI in the test on A549 NSCLC was more than 100 µM; in the test with DU-145 prostate, more than 100 µM; in the test on EKVX NSCLC, 33 µM; with HCT-116 colon, more than 100 µM; in the test with HL-60(TB) leukemia it was 7.44 µM; with MDA-MB-231 breast, 37.9 µM. Further, the TGI in the test on SK-OV-3 ovarian is more than 100 µM; with SNB-19 CNS, more than 100 µM; with SR leukemia, 24.5 µM; with UO-31 renal, 81.3 µM.
`CC(C)C(C=O)C(O)(C(F)(F)F)C(F)(F)F` (configuration not stated): the TGI in the test on A549 NSCLC, in the test on DU-145 prostate, with EKVX NSCLC, with HCT-116 colon, in the test on HL-60(TB) leukemia and in the test on MDA-MB-231 breast was more than 100 µM each time. For the same molecule, the TGI in the test with SK-OV-3 ovarian, in the test with SNB-19 CNS, in the test on SR leukemia and with UO-31 renal was more than 100 µM in each case.
Regarding `COc1cc(/C=[N+](\[O-])c2ccccc2Cl)ccc1OC(=S)S`, the TGI in the test on A549 NSCLC was more than 100 µM; in the test with DU-145 prostate, more than 100 µM; in the test with EKVX NSCLC, more than 100 µM; in the test on HCT-116 colon, more than 100 µM; with HL-60(TB) leukemia it was 47.6 µM; with MDA-MB-231 breast, more than 100 µM. Moreover, the TGI in the test on SK-OV-3 ovarian, with SNB-19 CNS, in the test with SR leukemia and with UO-31 renal was more than 100 µM each time.
Consider `OC[C@H](O)[C@@H](OCc1ccccc1)[C@H](NCc1ccccc1)c1cccs1`, for which the TGI in the test on A549 NSCLC, in the test with DU-145 prostate, in the test on EKVX NSCLC, with HCT-116 colon, with HL-60(TB) leukemia and with MDA-MB-231 breast was more than 100 µM in each case. Further, the TGI with SK-OV-3 ovarian is more than 100 µM; with SNB-19 CNS, more than 100 µM; in the test on SR leukemia, more than 100 µM; in the test with UO-31 renal, 68.8 µM.
`Cc1ccc(S(=O)(=O)N(CC(O)COc2ccccc2)c2ccccc2Cl)cc1` (configuration not stated): the TGI in the test with A549 NSCLC amounted to 27.9 µM; in the test with DU-145 prostate it was 57.5 µM; with EKVX NSCLC, 31.8 µM; in the test with HCT-116 colon it was 27.7 µM; in the test with HL-60(TB) leukemia it was 67.8 µM; in the test with MDA-MB-231 breast, 29.3 µM. Besides, the TGI was found to be 52 µM in the test on SK-OV-3 ovarian, 39.5 µM in the test on SNB-19 CNS, 35.1 µM in the test on SR leukemia and 24.8 µM with UO-31 renal.
In the case of `O=C1/C(=C/Cc2ccco2)N=C(c2ccccc2)N1c1nc2ccc(Sc3ccccc3)cc2[nH]1`, the TGI is more than 100 µM with A549 NSCLC; 70.5 µM with DU-145 prostate; more than 100 µM in the test on EKVX NSCLC; 40.7 µM with HCT-116 colon; 45.4 µM with HL-60(TB) leukemia; 57 µM with MDA-MB-231 breast. Moreover, the TGI in the test with SK-OV-3 ovarian was 84.6 µM; in the test on SNB-19 CNS it was 86.7 µM; with SR leukemia, 54.6 µM; in the test with UO-31 renal, 50.6 µM.
For `CCOC(=O)C(NS(=O)(=O)c1ccccc1)(C(F)(F)F)P(=O)(OCC(C)C)OCC(C)C` (configuration not stated), the TGI in the test on A549 NSCLC, in the test with DU-145 prostate, in the test with EKVX NSCLC, in the test with HCT-116 colon, in the test on HL-60(TB) leukemia and in the test with MDA-MB-231 breast was more than 100 µM in each case. Moreover, the TGI in the test with SK-OV-3 ovarian, in the test with SNB-19 CNS, in the test with SR leukemia and in the test with UO-31 renal was more than 100 µM each time.
In the case of `CCc1cc2c(cc1O)CC[C@@H]1[C@@H]2CC[C@]2(C)[C@@H](O)CC[C@@H]12`, the TGI was determined as 21.3 µM with A549 NSCLC; 24.5 µM with DU-145 prostate; 25.5 µM in the test on EKVX NSCLC; 13.4 µM in the test with HCT-116 colon; 7.66 µM in the test with HL-60(TB) leukemia; 21.4 µM with MDA-MB-231 breast. The TGI with SK-OV-3 ovarian amounted to 39.6 µM; with SNB-19 CNS it was 19 µM; with SR leukemia it was 10.9 µM; in the test with UO-31 renal it was 21.8 µM. Moreover, the GI50 with DU-145 prostate was 11.1 µM; in the test on HCT-116 colon, 3.52 µM.
In the case of `c1ccc(C(OCCN2CC3CCC(C2)N3)c2ccccc2)cc1`, the TGI in the test with A549 NSCLC, in the test with DU-145 prostate, with EKVX NSCLC, in the test with HCT-116 colon, in the test with HL-60(TB) leukemia and in the test on MDA-MB-231 breast was more than 100 µM each time. In addition, the TGI in the test on SK-OV-3 ovarian, in the test on SNB-19 CNS, in the test with SR leukemia and in the test on UO-31 renal was more than 100 µM in each case.
